# Measurements taken from publication PMC4539532 (Bioorganic & medicinal chemistry letters, 2015).
# What was measured:
# mGlu1 = mGlu1 (Homo sapiens, UniProt Q13255); assay: selectivity functional assay on mGlu1; format: cell-based
# mGlu5 = mGlu5 (Homo sapiens, UniProt P41594); assay: selectivity functional assay on mGlu5; format: cell-based
# mGlu6 = mGlu6 (Homo sapiens, UniProt O15303); assay: selectivity functional assay on mGlu6; format: cell-based
# mGlu8 = mGlu8 (Homo sapiens, UniProt O00222); assay: selectivity functional assay on mGlu8; format: cell-based
# [1] = in vitro microsomal stability; settings: n=2, T1/2=Ln2/κ
# mGlu2 = mGlu2 (Homo sapiens, UniProt Q14416); assay: selectivity functional assay on mGlu2; format: cell-based
# [2] = PET ligand for PBR, cited from earlier work
# mGlu4 = mGlu4 (Homo sapiens, UniProt Q14833); assay: competitive binding assay with [^3H]2 in mGlu4 transfected CHO cells; settings: 14 versus 13; 23 versus 2
# [3] = cited from earlier work; for Tmax for brain: rat brain, intraperitoneal injection
# mGlu4, sequence (Q14833 33-912): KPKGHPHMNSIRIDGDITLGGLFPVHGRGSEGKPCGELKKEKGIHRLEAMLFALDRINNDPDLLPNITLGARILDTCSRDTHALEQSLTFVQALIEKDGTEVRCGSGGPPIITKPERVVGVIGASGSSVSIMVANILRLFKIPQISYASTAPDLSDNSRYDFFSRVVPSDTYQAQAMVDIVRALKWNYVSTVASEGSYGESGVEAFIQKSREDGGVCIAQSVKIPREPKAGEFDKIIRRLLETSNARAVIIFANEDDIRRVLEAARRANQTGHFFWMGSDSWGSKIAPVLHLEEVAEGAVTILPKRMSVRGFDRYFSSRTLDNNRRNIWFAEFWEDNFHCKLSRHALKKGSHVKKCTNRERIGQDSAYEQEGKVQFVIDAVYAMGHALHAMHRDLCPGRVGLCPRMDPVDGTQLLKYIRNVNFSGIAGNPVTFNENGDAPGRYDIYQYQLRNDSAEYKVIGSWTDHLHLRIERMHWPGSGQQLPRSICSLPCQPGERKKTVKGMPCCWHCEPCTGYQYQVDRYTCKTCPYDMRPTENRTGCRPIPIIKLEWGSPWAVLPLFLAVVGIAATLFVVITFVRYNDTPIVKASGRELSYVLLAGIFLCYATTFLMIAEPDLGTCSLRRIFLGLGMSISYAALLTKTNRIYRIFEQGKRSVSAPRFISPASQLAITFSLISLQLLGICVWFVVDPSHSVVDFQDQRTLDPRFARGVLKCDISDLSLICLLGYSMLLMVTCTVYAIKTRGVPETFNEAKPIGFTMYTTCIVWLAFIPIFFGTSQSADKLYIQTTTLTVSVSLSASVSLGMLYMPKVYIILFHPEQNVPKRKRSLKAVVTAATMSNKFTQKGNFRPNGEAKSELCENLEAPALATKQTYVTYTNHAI
# mGlu6, sequence (O15303 25-877): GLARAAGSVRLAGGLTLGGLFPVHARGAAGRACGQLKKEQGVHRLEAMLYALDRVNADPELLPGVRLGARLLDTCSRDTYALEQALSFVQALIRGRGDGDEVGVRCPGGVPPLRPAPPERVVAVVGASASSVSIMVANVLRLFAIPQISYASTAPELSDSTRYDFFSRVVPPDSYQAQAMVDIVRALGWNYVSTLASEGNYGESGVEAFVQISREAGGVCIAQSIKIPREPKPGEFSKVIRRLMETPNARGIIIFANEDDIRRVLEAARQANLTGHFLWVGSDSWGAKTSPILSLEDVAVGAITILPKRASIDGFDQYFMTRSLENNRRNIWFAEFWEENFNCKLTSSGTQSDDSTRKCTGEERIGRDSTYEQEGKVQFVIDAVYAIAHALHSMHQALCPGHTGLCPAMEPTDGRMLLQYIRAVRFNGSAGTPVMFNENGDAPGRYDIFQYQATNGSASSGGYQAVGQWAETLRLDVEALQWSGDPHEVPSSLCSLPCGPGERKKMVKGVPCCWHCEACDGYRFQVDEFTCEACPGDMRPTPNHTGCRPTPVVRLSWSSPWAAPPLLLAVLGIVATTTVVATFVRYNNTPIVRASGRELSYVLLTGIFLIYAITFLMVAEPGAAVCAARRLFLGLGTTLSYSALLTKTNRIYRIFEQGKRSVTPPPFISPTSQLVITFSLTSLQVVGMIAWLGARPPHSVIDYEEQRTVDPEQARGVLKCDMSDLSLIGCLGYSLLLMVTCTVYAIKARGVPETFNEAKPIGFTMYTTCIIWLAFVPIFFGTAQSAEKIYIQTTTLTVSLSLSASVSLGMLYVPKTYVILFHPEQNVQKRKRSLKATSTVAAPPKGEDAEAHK
# mGlu5, sequence (P41594 21-1212): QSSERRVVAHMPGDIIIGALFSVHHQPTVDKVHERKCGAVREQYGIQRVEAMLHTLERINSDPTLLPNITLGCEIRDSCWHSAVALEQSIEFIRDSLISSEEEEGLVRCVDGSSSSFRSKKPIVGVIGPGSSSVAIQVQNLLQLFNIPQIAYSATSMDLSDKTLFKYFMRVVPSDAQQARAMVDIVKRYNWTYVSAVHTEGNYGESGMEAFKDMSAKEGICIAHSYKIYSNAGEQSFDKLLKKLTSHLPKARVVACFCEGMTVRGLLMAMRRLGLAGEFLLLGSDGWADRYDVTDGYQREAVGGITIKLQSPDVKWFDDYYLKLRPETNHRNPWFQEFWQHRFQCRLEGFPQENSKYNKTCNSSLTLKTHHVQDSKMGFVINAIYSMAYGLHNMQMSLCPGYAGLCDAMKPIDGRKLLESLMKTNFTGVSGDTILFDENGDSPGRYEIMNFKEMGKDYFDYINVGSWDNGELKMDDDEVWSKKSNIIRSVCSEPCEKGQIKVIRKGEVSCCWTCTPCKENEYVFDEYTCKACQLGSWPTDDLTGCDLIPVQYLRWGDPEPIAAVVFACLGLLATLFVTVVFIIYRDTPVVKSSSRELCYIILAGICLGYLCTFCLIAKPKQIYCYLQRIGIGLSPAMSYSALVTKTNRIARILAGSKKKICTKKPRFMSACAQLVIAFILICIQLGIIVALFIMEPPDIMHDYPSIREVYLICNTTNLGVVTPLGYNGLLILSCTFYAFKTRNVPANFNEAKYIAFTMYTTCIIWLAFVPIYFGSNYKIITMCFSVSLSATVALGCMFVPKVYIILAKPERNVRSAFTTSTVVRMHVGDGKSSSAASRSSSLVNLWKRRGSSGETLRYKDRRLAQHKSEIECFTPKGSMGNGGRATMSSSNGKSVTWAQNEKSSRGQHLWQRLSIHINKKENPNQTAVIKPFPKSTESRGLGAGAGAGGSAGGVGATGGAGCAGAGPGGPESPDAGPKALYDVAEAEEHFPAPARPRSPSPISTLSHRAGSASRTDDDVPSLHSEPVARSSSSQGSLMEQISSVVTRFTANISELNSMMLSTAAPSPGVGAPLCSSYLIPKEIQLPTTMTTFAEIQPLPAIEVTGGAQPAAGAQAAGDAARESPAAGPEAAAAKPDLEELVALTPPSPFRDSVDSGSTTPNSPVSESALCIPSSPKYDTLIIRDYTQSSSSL
# mGlu2, sequence (Q14416 19-872): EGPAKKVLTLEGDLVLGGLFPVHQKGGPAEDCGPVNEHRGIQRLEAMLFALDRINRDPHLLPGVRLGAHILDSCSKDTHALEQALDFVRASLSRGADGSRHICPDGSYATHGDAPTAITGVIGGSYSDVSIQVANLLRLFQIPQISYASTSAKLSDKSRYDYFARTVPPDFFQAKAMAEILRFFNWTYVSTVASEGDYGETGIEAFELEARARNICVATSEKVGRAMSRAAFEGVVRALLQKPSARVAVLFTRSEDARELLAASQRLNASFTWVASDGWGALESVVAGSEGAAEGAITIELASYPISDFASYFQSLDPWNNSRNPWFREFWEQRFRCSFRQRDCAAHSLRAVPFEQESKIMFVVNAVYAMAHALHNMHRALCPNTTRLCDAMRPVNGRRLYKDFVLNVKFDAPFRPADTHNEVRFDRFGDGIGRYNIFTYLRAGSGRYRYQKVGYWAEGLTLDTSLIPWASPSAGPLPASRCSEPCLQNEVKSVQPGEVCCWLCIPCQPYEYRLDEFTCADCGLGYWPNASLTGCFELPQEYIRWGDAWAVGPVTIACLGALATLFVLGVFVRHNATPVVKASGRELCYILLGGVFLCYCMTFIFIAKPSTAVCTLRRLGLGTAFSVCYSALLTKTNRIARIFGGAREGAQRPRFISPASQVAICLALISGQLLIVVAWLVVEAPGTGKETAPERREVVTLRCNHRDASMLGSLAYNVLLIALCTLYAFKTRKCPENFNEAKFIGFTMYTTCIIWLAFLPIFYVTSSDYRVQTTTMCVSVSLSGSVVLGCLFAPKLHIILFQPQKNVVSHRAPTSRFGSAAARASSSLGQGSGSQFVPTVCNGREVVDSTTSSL
# mGlu1, sequence (Q13255 19-1194): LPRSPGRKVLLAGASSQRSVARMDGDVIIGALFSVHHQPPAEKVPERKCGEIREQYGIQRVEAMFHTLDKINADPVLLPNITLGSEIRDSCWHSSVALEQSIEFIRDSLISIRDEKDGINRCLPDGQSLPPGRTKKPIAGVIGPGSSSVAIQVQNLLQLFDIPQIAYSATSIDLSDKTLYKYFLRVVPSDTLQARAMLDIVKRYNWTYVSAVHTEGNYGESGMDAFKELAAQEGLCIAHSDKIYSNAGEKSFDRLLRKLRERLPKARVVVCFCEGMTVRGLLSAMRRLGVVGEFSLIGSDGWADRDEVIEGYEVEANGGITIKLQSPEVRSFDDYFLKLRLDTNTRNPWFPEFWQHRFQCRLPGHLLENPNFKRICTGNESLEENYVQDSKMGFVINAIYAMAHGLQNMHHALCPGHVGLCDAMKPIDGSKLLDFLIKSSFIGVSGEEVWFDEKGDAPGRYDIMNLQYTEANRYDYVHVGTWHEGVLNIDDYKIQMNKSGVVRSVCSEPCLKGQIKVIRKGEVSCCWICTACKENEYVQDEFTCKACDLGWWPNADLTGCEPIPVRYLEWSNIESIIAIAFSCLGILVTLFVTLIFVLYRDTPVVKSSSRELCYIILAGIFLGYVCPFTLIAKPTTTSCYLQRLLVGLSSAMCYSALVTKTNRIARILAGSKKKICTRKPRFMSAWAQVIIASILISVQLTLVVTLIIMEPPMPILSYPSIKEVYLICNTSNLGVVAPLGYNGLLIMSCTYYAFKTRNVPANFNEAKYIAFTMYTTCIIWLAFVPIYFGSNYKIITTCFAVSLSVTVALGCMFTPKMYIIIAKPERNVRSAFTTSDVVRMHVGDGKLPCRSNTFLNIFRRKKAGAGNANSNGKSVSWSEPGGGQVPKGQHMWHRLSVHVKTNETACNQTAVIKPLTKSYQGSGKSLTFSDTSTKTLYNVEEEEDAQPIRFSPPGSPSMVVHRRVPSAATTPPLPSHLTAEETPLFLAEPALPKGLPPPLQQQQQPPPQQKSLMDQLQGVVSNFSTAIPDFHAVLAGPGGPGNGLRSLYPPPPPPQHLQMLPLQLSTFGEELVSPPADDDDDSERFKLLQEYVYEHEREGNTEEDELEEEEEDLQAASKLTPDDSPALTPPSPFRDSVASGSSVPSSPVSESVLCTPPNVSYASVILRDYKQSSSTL
structure (smiles),measurement,setting,value
[2H]C([2H])(F)Oc1cc(NC(=O)c2ccccn2)ccc1Cl [Compound 24],activity against mGlu1,mGlu1,little activity
same,activity against mGlu5,mGlu5,little activity
same,activity against mGlu6,mGlu6,little activity
same,activity against mGlu8,mGlu8,little activity
same,"κ (decay constant, slope of log concentration vs time profile)",[1],0.093
same,activity against mGlu2,mGlu2,little activity
[2H]C([2H])([18F])Oc1ccc(OC)cc1CN(C(C)=O)c1cc(F)ccc1Oc1ccccc1 [N-(5-fluoro-2-phenoxyphenyl)-N-(2-[^18F]fluoromethoxy-d2-5-methoxybenzyl)acetamide],half time (T1/2) in the brain,[2]; brain,> 60 min
same,half time (T1/2) in the plasma,[2]; plasma,2.575 min
O=C(Nc1ccc(Cl)c(OCF)c1)c1ccccn1 [Compound 23],fold enhancement in affinity,mGlu4,1.6 fold
same,"κ (decay constant, slope of log concentration vs time profile)",[1],0.120
O=C(Nc1cccc(OC(F)F)c1)c1ccccn1 [Compound 3],Tmax for brain,[3],30 min
same,brain:plasma (B/P) partition coefficient,"[3]; rat, AUC0–8h, Brain/AUC0–8h, Plasma",9.9
same,"κ (decay constant, slope of log concentration vs time profile)",[1],0.132
Cc1ccnc(Nc2nc(-c3cn[nH]c3)c(C)s2)n1 [Compound 4],"κ (decay constant, slope of log concentration vs time profile)",[1],0.099
COc1cc(NC(=O)c2ccccn2)ccc1Cl [Compound 2],Tmax for brain,[3],30 min
same,"κ (decay constant, slope of log concentration vs time profile)",[1],0.141
CSc1cccc(NC(=O)c2ccccn2)c1 [Compound 14],fold enhancement in affinity,mGlu4,2.8 fold
